“Also recorded” adds a separate entry of the source.

Data set [1] relates to three-dimensional skin model (Test Skin LSE-002 or 003; Toyobo) treated with SDS. Briefly: Skin roughness model: three-dimensional skin model defatted with SDS, cell viability by MTT (absorbance of formazan). Type of data set: cell-based. Conditions: for cell viability (absorbance of formazan): dissolved in olive oil, added on Test Skin treated with 1% SDS, left overnight, MTT kit. For orientation: Formazan colour is commonly taken as a measure of viable cells.

Data set [2] is described as follows: Dispersion stability test in water (absorbance at 650 nm). Conditions: FIG. 6; for change in turbidity of the water suspension: after 6 hours. The format is physicochemical. On the procedure:
MEL-B or MEL-C at a concentration of 10 mg/mL was added to water, stirred and suspended. Its absorbance at 650 nm was measured.

For the substance mannosylerythritol lipid A [MEL-A], the “cell viability (absorbance of formazan)” value in data set [1] is listed as “increased in a MEL-A-concentration-dependent manner”.
Regarding mannosylerythritol lipid B [MEL-B], the “change in turbidity of the water suspension” value in data set [2] is recorded as “little observable change in turbidity”. Moreover, the “skin roughness improvement compared with MEL-A” value in data set [1] (FIG. 4 legend, three-dimensional skin model treated with SDS, viability) is on record as “increased skin roughness improvement over MEL-A”. Also, in data set [1], the “cell viability (absorbance of formazan)” value was “increased in a MEL-B-concentration-dependent manner”.
Regarding mannosylerythritol lipid C [MEL-C], the dispersion stability entry in data set [2] (10 mg/mL in water, stirred and suspended, absorbance at 650 nm) is “particularly excellent in dispersion stability; also recorded: more excellent than MEL-A in water dispersion stability”. In addition, the “change in turbidity of the water suspension” value in data set [2] is “little observable change in turbidity”. Besides, the “cell viability (absorbance of formazan)” value in data set [1] was “increased in a MEL-C-concentration-dependent manner”.

The record behind these values is patent US20110257116A1, “BIOSURFACTANT-CONTAINING SKIN CARE COSMETIC AND SKIN ROUGHNESS-IMPROVING AGENT” (National Institute Of Advanced Industrial Science And …, priority 2005, published 2011).
